Source: ChEMBL document CHEMBL1159059, “Fluoroalkene modification of mercaptoacetamide-based histone deacetylase inhibitors” (Bioorg Med Chem, 2010)

Target: Histone deacetylase
Test: Inhibition of HDAC in human HeLa cell nuclear extract by fluorescence assay
Format: cell-based

`O=C(CCCCC/C=C(\F)CS)Nc1ccccc1` and `O=C(CCCC/C=C(\F)CS)Nc1ccccc1` are within 1.5-fold of each other in IC50: 360 nM for the first, 510 nM for the second.

For `O=C(NCCCCC/C=C(\F)CS)c1ccccc1`, the IC50 was 290 nM.
